Measurements published in PubChem BioAssay (NCI).
Where “and” joins values, the source holds several entries; their conditions need not be identical. Equal entries are not always repeated.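 How tested: cells in 96-well plates exposed to compound for 48 hours at five concentrations. GI50: concentration for 50% inhibition of growth. TGI denotes the concentration required for complete inhibition of growth.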

Columns and labels:
Test in all cases: DTP human tumour cell line panel, 48 h
[1] = test system: DU-145 prostate
[2] = test system: MDA-MB-435
[3] = test system: OVCAR-4 ovarian
[4] = test system: OVCAR-8 ovarian
[5] = test system: SK-MEL-28 melanoma
[6] = test system: SK-OV-3 ovarian
[7] = test system: SR leukemia
[8] = test system: UACC-62 melanoma
[9] = test system: SN12C renal
[10] = test system: MALME-3M melanoma

Row | SMILES | GI50 [1] [µM] | TGI [1] [µM] | GI50 [2] [µM] | TGI [2] | GI50 [3] | TGI [3] | GI50 [4] | TGI [4] | GI50 [5] | TGI [5] | GI50 [6] [µM] | TGI [6] | GI50 [7] [nM] | TGI [7] [µM] | GI50 [8] [µM] | TGI [8] [µM] | TGI [9] | TGI [10] | GI50 [9] | GI50 [10] [µM]
1 | COc1c2ccccc2c(O)c2c(=O)c(C(=O)O)cn(C)c12 | > 100 | > 100 | > 100 | > 100 µM | > 100 µM | > 100 µM | > 100 µM | > 100 µM | 65 µM | > 100 µM | > 100 | > 100 µM | > 100000 | > 100 | 24.7 | > 100 |  |  |  | 
2 | Cc1ccc(-c2ccc(Nc3c4ccccc4nc4ccccc34)cc2)cn1 |  |  |  | 16 µM |  |  |  | > 100 µM |  | 9.18 µM |  |  |  | 6.56 |  | 11.5 | 15.3 µM |  |  | 
3 | CC(=O)O[C@H]1[C@@H]2[C@@H]3[C@@H](C[C@H]1C)[C@@H](C)CO[C@@]1(C)CC/C=C(/C)C[C@@H]2O[C@@H]31 |  |  |  |  |  | > 100 µM |  | > 100 µM |  | > 100 µM |  | > 100 µM |  | > 100 |  | > 100 | > 100 µM | > 100 µM |  | 
4 | FC(F)(F)c1ccc(C=NC23CC4CC(CC(C4)C2)C3)cc1 |  |  |  |  |  | > 100 µM |  | > 100 µM |  | > 100 µM |  | > 100 µM |  | > 100 |  | > 100 | > 100 µM | > 100 µM |  | 
5 | COc1cc(-c2oc3c(OC)c(OC)cc(O)c3c(=O)c2OC)ccc1O |  | > 50 |  | > 50 µM | > 100 µM and 11.4 µM | > 100 µM |  | > 50 µM | > 100 µM and 20 µM | > 100 µM |  | 14.3 µM |  |  |  | > 100 | > 100 µM | > 100 µM | 3.73 µM and 12.4 µM | 
6 | CC(=O)OCC1OC(OC2CC3C(C)(C)C(OC(C)=O)CC[C@]3(C)C3CCC45CC4(CC[C@H]5C(C)CC(O)C4OC4(C)C)[C@]23C)C(O)C(O)C1O (some centres undefined) |  |  |  |  | 15.3 µM | 6.27 µM and 38.9 µM | 3 µM | 8.24 µM and 9.67 µM | 2.99 µM | 7.11 µM and 9.32 µM | 3.22 | 8.7 µM and 11.2 µM |  | 8.58 | > 60 |  | 8.75 µM and 14.9 µM | 16.6 µM and 8.6 µM | 4.44 µM | 4.67
7 | Cc1ccc(NC(=O)CC(=O)n2nc(-c3ccccc3)c(N=Nc3ccc(Cl)cc3)c2-c2ccccc2)cc1 |  |  |  |  |  | > 100 µM |  | 60.6 µM |  | > 100 µM |  | > 100 µM |  |  |  | > 100 | > 100 µM | > 100 µM |  | 
8 | O=C(CC/C(C/C(=N/O)c1ccc(F)cc1)=N/O)N(Cc1ccccc1)Cc1ccccc1 |  |  |  |  |  | > 100 µM |  | > 100 µM |  | > 100 µM |  |  |  |  |  | > 100 | > 100 µM | > 100 µM |  | 
9 | O=C1CC2CCCCC2=C1O (centres undefined) |  |  |  |  |  | > 100 µM |  | > 100 µM |  | > 100 µM |  | > 100 µM |  |  |  | > 100 | > 100 µM | > 100 µM |  | 
10 | CC1CCCC(C(O)CC2CC(=O)N(c3ccccc3)C(=O)C2)C1=O (centres undefined) |  |  |  |  |  | > 100 µM |  | > 100 µM |  | > 100 µM |  | > 100 µM |  | > 100 |  | > 100 | > 100 µM | > 100 µM |  | 
11 | C/C(=N\NC(=O)CC(=O)Nc1ccc(Cl)cc1)c1cc2ccccc2oc1=O |  |  |  |  |  |  |  | > 100 µM |  | > 100 µM |  | > 100 µM |  |  |  | > 100 | > 100 µM | > 100 µM |  | 
12 | NC1=NC(c2ccccc2)N=C(Nc2ccccc2)N1 (centres undefined) | > 100 | > 100 | 34.5 | > 100 µM | > 100 µM | > 100 µM | > 100 µM | > 100 µM | > 100 µM | > 100 µM | > 100 | > 100 µM |  |  | > 100 | > 100 | > 100 µM |  | > 100 µM | 
13 | Cn1cc2c(n1)c(N/N=C/c1ccccc1)nn1nnnc21 |  |  |  |  |  | > 100 µM |  | > 100 µM |  | > 100 µM |  | > 100 µM |  | > 100 |  | > 100 | > 100 µM | > 100 µM |  | 
14 | C=CCNC1=C(C(=O)OCC)C(=O)CO1 |  |  |  |  |  | > 100 µM |  | > 100 µM |  | > 100 µM |  |  |  | > 100 |  | > 100 | > 100 µM | > 100 µM |  | 
15 | C=C(CN1CCN(c2cccc(C(F)(F)F)c2)CC1)c1ccc(C(=O)Nc2ccccc2N)cc1 | 1.36 | 7.23 | 0.156 | 0.554 µM | 3.94 µM | 41 µM | 1.4 µM | 17.2 µM | 3.4 µM | > 27.2 µM |  |  | 56.8 | > 50 | 0.409 | 4.89 | 14.5 µM |  | 2.19 µM | 
16 | CC[C@@]1(O)C(=O)OCc2c1cc1n(c2=O)Cc2cc3cc(OC)ccc3nc2-1 | 0.0219 | 0.041 | 0.117 | 0.247 µM and 0.333 µM | 0.682 µM |  | 0.0153 µM and 0.0239 µM | 0.297 µM and 0.35 µM | 0.894 µM |  |  |  | 4.61 |  |  |  |  | 0.548 µM |  | 0.0257
17 | O=S(=O)(NC(=S)Nc1ccccc1)c1ccc(N2N=C3c4ccccc4CC3C2c2cccs2)cc1 (centres undefined) | 17.8 | 41.5 | 19.4 | 45.6 µM | 69.8 µM | > 100 µM | 39 µM | > 100 µM | 53.8 µM | > 100 µM | 49.5 | > 100 µM |  |  | 18.5 | 37.3 | 43.2 µM |  | 21.4 µM | 
18 | CC1C=C(OC(=O)c2ccccc2)C(=O)C(n2cc(F)c(=O)n(C(=O)c3ccccc3)c2=O)O1 (centres undefined) |  |  |  |  |  | > 100 µM |  | > 100 µM |  | > 100 µM |  | > 100 µM |  |  |  | 98.6 | > 100 µM | 95.7 µM |  | 
19 | O=C([O-])c1ccc2c(c1)-c1nc-2nc2[n-]c(nc3nc(nc4[n-]c(n1)c1ccc(C(=O)[O-])cc41)-c1cc(C(=O)[O-])ccc1-3)c1ccc(C(=O)[O-])cc21.[Fe+2] |  |  |  |  | 49.2 µM | > 50 µM | > 50 µM | > 50 µM | > 50 µM | > 50 µM | > 50 | > 50 µM | 19000 | > 50 | > 50 | > 50 | > 50 µM | > 50 µM | > 50 µM | > 50
20 | C=C(CN(CC(=C)C(=O)c1ccccc1)C(C)(C)C)C(=O)c1ccccc1 |  | 40.3 |  |  |  | 29.3 µM |  | 67.9 µM |  | 36.8 µM |  | 34.4 µM |  | > 21 |  | 32.4 | 32.5 µM | 29.7 µM |  | 
